# Experimental data from patent US12180226B2, “Spirotricycle RIPK1 inhibitors and methods of uses thereof” (Merck Sharp & Dohme LLC, priority 2021, dated 2024).
# Structures can show the parent of a compound that is named as a salt.
# Target: RIPK1 (recombinant GST-RIPK1 kinase domain, residues 1-327) (Homo sapiens (Human), UniProt Q13546)
# Test: RIPK1-ADP-Glo Enzymatic Assay
# Assay type: biochemical
# Conditions: ADP-Glo; 25 nM GST-RIPK1, 300 μM ATP; assay lower limit ~25 nM; read-out: RIPK1 V0 Ec50
# Outline: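 Inhibition of ADP formation was measured after compound and enzyme (25 nM) were pre-incubated for 30 minutes at ambient temperature and the kinase reaction ran for 150 minutes at 300 μM ATP with dephosphorylated MBP substrate. EC50 values come from ten-point curves fitted non-linearly.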
# RIPK1 (recombinant GST-RIPK1 kinase domain, residues 1-327), sequence (Q13546 1-327): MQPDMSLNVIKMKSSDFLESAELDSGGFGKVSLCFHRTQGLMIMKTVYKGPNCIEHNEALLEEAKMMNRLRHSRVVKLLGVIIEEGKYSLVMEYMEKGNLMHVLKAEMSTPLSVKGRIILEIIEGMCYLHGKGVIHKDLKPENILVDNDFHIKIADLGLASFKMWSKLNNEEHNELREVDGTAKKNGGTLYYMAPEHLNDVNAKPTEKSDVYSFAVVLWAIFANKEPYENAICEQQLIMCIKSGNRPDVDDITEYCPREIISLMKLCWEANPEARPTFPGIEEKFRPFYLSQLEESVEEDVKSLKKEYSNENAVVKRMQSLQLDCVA
row,Compound,EC50 [µM]
1,"Cn1cc(C(=O)N2CCC3(CC2)O[C@@H]2CC[C@@H](c4cc(F)cc(F)c4)N2C3=O)cn1 [Example 5.53, (5′S,7a′R)-5′-(3,5-difluoro-phenyl)-1-(1-methyl-1H-pyrazole-4-carbonyl)tetra-hydro-3′H-spiro[piperidine-4,2′-pyrrolo[2,1-b]oxazol]-3′-one]",0.509
2,"O=C(C1CC1)N1CCC2(CC1)O[C@@H]1CC[C@@H](c3cc(F)cc(F)c3)N1C2=O [Example 1.8, (5′S,7a′R)-1-(cyclopropanecarbonyl)-5′-(3,5-difluorophenyl)tetrahydro-3′H-spiro[piperidine-4,2′-pyrrolo[2,1-b] [1,3]oxazol]-3′-one]",0.256
3,"COc1cccnc1C(=O)N1CCC2(CC1)O[C@@H]1CC[C@@H](c3cc(F)cc(F)c3)N1C2=O [Example 6.81, (5′S,7a′R)-5′-(3,5-difluorophenyl)-1-(3-methoxypyridine-2-carbonyl)tetrahydro-3′H-spiro[piperidine-4,2′-pyrrolo[2,1-b] [1,3]oxazol]-3′-one]",0.935
4,"O=C(c1ccccc1)N1CCC2(CC1)O[C@@H]1CC[C@@H](c3cncc(F)c3)N1C2=O [Example 1.4, (5′S,7a′R)-1-(benzenecarbonyl)-5′-(5-fluoropyridin-3-yl)tetrahydro-3′H-spiro[piperidine-4,2′-pyrrolo[2,1-b] [1,3]oxazol]-3′-one]",0.121
5,"O=C1N2[C@@H](CC[C@H]2c2cc(F)cc(F)c2)OC12CCN(c1ccc(Cl)c3ccnn13)CC2 [Example 15.1, (5′S,7a′R)-1-(4-chloropyrazolo[1,5-a]pyridin-7-yl)-5′-(3,5-difluorophenyl)tetrahydro-3′H-spiro[piperidine-4,2′-pyrrolo[2,1-b]oxazol]-3′-one, TFA]",< 0.025
6,"O=C(c1ccccc1)N1CCC2(CC1)O[C@@H]1[C@@H](F)C[C@@H](c3ccccc3)N1C2=O [Example 6.108, (5′S,7′S,7a′R)-1-(benzenecarbonyl)-7′-fluoro-5′-phenyl-tetrahydro-3′H-spiro [piperidine-4,2′-pyrrolo[2,1-b][1,3]-oxazol]-3′-one]",0.0438

# Next, values leading:
row,EC50 [µM],Compound
1,< 0.025,"O=C1N2[C@@H](CC[C@H]2c2ccccc2F)OC12CCN(c1cccc3ncnn13)CC2 [Example 4.253, (5′S,7a′R)-5′-(2-fluorophenyl)-1-([1,2,4]triazolo[1,5-a]pyridin-5-yl)tetrahydro-3′H-spiro[piperidine-4,2′-pyrrolo[2,1-b] [1,3]oxazol]-3′-one]"
2,< 0.025,"O=C(c1ccccc1)N1CCC2(CC1)O[C@@H]1CC[C@@H](c3cccc(F)c3F)N1C2=O [Example 17.10, (5′S,7a′R)-1-benzoyl-5′-(2,3-difluorophenyl)tetrahydro-3′H-spiro[piperidine-4,2′-pyrrolo[2,1-b]oxazol]-3′-one]"
3,< 0.025,"O=C1N2[C@@H](CC[C@H]2c2ccccc2F)OC12CCN(c1ccnc(Cl)c1)CC2 [Example 4.268, (5′S,7a′R)-1-(2-chloropyridin-4-yl)-5′-(2-fluorophenyl)tetrahydro-3′H-spiro[piperidine-4,2′-pyrrolo[2,1-b] [1,3]oxazol]-3′-one]"
4,0.0311,"N#Cc1ccnc(N2CCC3(CC2)O[C@@H]2CC[C@@H](c4cccc(F)c4)N2C3=O)c1 [Example 4.54, 2-[(5′S,7a′R)-5′-(3-fluorophenyl)-3′-oxotetrahydro-1H,3′H-spiro[piperidine-4,2′-pyrrolo[2,1-b] [1,3]oxazol]-1-yl]pyridine-4-carbonitrile]"
5,< 0.025,"N#Cc1cnc(N2CCC3(CC2)O[C@@H]2CC[C@@H](c4ccccc4)N2C3=O)cc1OC(F)F [Example 4.206, 4-(difluoromethoxy)-6-[(5′S,7a′R)-3′-oxo-5′-phenyltetrahydro-1H,3′H-spiro[piperidine-4,2′-pyrrolo[2,1-b] [1,3]oxazol]-1-yl]pyridine-3-carbonitrile]"
